Values after ≈ are worked out from the molar mass of the structure shown. Like-named read-outs stand apart in the source and are kept apart here. Where a SMILES comes first, the peptide text is derived from it. [ ]: non-standard residue; d: D form. The star is where a group is joined. boroAla((+)-pinanediol) = C[C@H](N*)B1O[C@@H]2C[C@@H]3C[C@@H](C3(C)C)[C@]2(C)O1; Benzoyl(4-(4-Cl-Ph)) = O=C(c1ccc(-c2ccc(Cl)cc2)cc1)*; Ethanesulfonyl(2-NHDecyl) = CCCCCCCCCCNCCS(=O)(=O)*; Propanoyl(3-decylamino) = CCCCCCCCCCNCCC(=O)*; X33 = CC(C)(O)C#CC#Cc1ccc(C(=O)*)cc1; AlaCOCOOMe = COC(=O)C(=O)[C@H](C)N*; X35 = O=C(c1cnc(-c2ccc(Cl)cc2)nc1)*; X36 = CC(C)C#CC#Cc1ccc(C(=O)*)cc1; X29 = CCCCCCCCCCN(C)CCS(=O)(=O)*; X19 = CCCCCCCCCCN(C)CCC(=O)*; X22 = C[C@H](N*)C(=O)C(=O)O; Decanoyl = CCCCCCCCCC(=O)*; boroAla = C[C@H](N*)B(O)O; Octanoyl = CCCCCCCC(=O)*; Dab = NCC[C@H](N)C(=O)O; Dap = NC[C@H](N)C(=O)O
Assays:
[1] = system: Escherichia coli strain MC4100 IMP-4213, which harbors an LptD mutation; conditions: E. coli MC4100 IMP-4213; 35° C., 22 hours
Experimental: (§1) In vitro antimicrobial activity of each compound was determined by measuring minimal inhibitor concentrations (MICs) using the broth micro-dilution technique as approved by the Clinical and Laboratory Standards Institute (CLSI). Antibacterial activity was measure against two strains of bacteria: 1) methicillin resistant Staphylococcus aureus (MRSA) strain USA300 (NRS384) and 2) Escherichia coli strain MC4100 IMP-4213, which harbors an LptD mutation. Bacterial inocula were prepared by scraping cells into 1 mL of testing media (cation adjusted Mueller Hinton Broth supplemented with 0.002% v/v Tween-80) and diluting to a final OD600nm of 0.01.
(§2) Test compounds were prepared in DMSO at a concentration of 10 mg/ml. These compound stocks were diluted into testing media at a concentration of 64 μg/ml and 9 serial 1:2 dilutions were made in the same media, in 96-well U bottom microtiter dishes. Bacterial inocula were added to the two fold serial dilutions of test compounds to a final density of OD OD600nm of 0.0005 and incubated stationarily at 35° C. for 22 hours, after which the plates were examined visually.

[2] = system: methicillin resistant Staphylococcus aureus (MRSA) strain USA300 (NRS384)
Experimental: as §1, §2

[3] = MRSA USA300 (NRS384), 35° C., 22 hours

| Structure (SMILES) | MIC (μg/mL) E. coli [1] [µg/mL] | MIC (μg/mL) S. aureus [2, 3] [µg/mL] | MIC (μg/mL) S. aureus ([2]; USA300, 22 h) [µg/mL] |
| --- | --- | --- | --- |
| CCCCCCCCCCNCCS(=O)(=O)N[C@@H](CCCCN)C(=O)N[C@H](C(=O)N[C@@H](C)C(=O)N[C@@H](CCCCN)C(=O)N[C@@H](C)B1O[C@@H]2C[C@@H]3C[C@@H](C3(C)C)[C@]2(C)O1)[C@@H](C)O [Compound 237] ({Ethanesulfonyl(2-NHDecyl)}-KTAK-{boroAla((+)-pinanediol)}) | 32 (≈ 35.6 µM) | 0.35 (≈ 0.389 µM) | – |
| CCCCCCCCCCNCCS(=O)(=O)N[C@@H](CCCCN)C(=O)N[C@H](C(=O)N[C@@H](C)C(=O)N[C@@H](CCCCN)C(=O)N[C@@H](C)B(O)O)[C@@H](C)O [Compound 238] ({Ethanesulfonyl(2-NHDecyl)}-KTAK-boroAla) | 32 (≈ 41.8 µM) | – | 0.18 (≈ 0.235 µM) |
| CCCCCCCCCCNCCS(=O)(=O)N[C@@H](CCN)C(=O)N[C@H](C(=O)N[C@@H](C)C(=O)N[C@@H](CCCCN)C(=O)N[C@@H](C)B1O[C@@H]2C[C@@H]3C[C@@H](C3(C)C)[C@]2(C)O1)[C@@H](C)O [Compound 239] ({Ethanesulfonyl(2-NHDecyl)}-[Dab]TAK-{boroAla((+)-pinanediol)}) | 4 (≈ 4.59 µM) | 0.25 (≈ 0.287 µM) | – |
| CCCCCCCCCCN(C)CCC(=O)N[C@@H](CCCCN)C(=O)N[C@H](C(=O)N[C@@H](C)C(=O)N[C@@H](CCCCN)C(=O)N[C@@H](C)B1O[C@@H]2C[C@@H]3C[C@@H](C3(C)C)[C@]2(C)O1)[C@@H](C)O [Compound 240] (X19-KTAK-{boroAla((+)-pinanediol)}) | 32 (≈ 36.5 µM) | 1.4 (≈ 1.6 µM) | – |
| CCCCCCCCCCNC[C@@H](N)C(=O)N[C@H](C(=O)N[C@@H](C)C(=O)N[C@@H](CCCCN)C(=O)N[C@@H](C)B1O[C@@H]2C[C@@H]3C[C@@H](C3(C)C)[C@]2(C)O1)[C@@H](C)O [Compound 241] | 32 (≈ 42.7 µM) | 1 (≈ 1.33 µM) | – |
| CCCCCCCCCCNCCN[C@@H](CO)C(=O)N[C@H](C(=O)N[C@@H](C)C(=O)N[C@@H](CCCCN)C(=O)N[C@@H](C)B1O[C@@H]2C[C@@H]3C[C@@H](C3(C)C)[C@]2(C)O1)[C@@H](C)O [Compound 242] | 64 (≈ 80.6 µM) | 4 (≈ 5.04 µM) | – |
| CCCCCCCCCCNCCN[C@@H](CC(N)=O)C(=O)N[C@H](C(=O)N[C@@H](C)C(=O)N[C@@H](CCCCN)C(=O)N[C@@H](C)B(O)O)[C@@H](C)O [Compound 243] | >64 | – | 1.4 (≈ 2.04 µM) |
| CCCCCCCCCCNCCNCC(=O)N[C@H](C(=O)N[C@@H](C)C(=O)N[C@@H](CCCCN)C(=O)N[C@@H](C)B1O[C@@H]2C[C@@H]3C[C@@H](C3(C)C)[C@]2(C)O1)[C@@H](C)O [Compound 244] | 64 (≈ 83.8 µM) | 0.87 (≈ 1.14 µM) | – |
| CCCCCCCCCCN(C)CCS(=O)(=O)N[C@@H](CCCCN)C(=O)N[C@H](C(=O)N[C@@H](C)C(=O)N[C@@H](CCCCN)C(=O)N[C@@H](C)B1O[C@@H]2C[C@@H]3C[C@@H](C3(C)C)[C@]2(C)O1)[C@@H](C)O [Compound 245] (X29-KTAK-{boroAla((+)-pinanediol)}) | 32 (≈ 35 µM) | 0.35 (≈ 0.383 µM) | – |
| COC(=O)C(=O)[C@H](C)NC(=O)[C@H](CCCCN)NC(=O)[C@H](C)NC(=O)[C@@H](NC(=O)[C@H](CCN)NC(=O)c1ccc(-c2ccc(Cl)cc2)cc1)[C@@H](C)O [Compound 246] ({Benzoyl(4-(4-Cl-Ph))}-[Dab]TAK-AlaCOCOOMe) | >64 | 2.3 (≈ 3.08 µM) | – |
| C[C@H](NC(=O)[C@@H](NC(=O)[C@H](CCN)NC(=O)c1ccc(-c2ccc(Cl)cc2)cc1)[C@@H](C)O)C(=O)N[C@@H](CCCCN)C(=O)N[C@@H](C)C(=O)C(=O)O [Compound 247] ({Benzoyl(4-(4-Cl-Ph))}-[Dab]TAK-X22) | >64 | 3.2 (≈ 4.37 µM) | – |
| CCCCCCCCCCNCCC(=O)N[C@@H](CCCCN)C(=O)N[C@H](C(=O)N[C@@H](C)C(=O)N[C@@H](CCCCN)C(=O)N[C@@H](C)C(=O)C(=O)OC)[C@@H](C)O [Compound 248] ({Propanoyl(3-decylamino)}-KTAK-AlaCOCOOMe) | >64 | – | 1 (≈ 1.3 µM) |
| CCCCCCCCCCNCCC(=O)N[C@@H](CCCCN)C(=O)N[C@H](C(=O)N[C@@H](C)C(=O)N[C@@H](CCCCN)C(=O)N[C@@H](C)C(=O)C(=O)O)[C@@H](C)O [Compound 249] ({Propanoyl(3-decylamino)}-KTAK-X22) | >64 | – | 0.71 (≈ 0.938 µM) |
| CCCCCCCCCCNCCS(=O)(=O)N[C@@H](CCCCN)C(=O)N[C@H](C(=O)N[C@@H](C)C(=O)N[C@@H](CCCCN)C(=O)N[C@@H](C)C(=O)C(=O)OC)[C@@H](C)O [Compound 250] ({Ethanesulfonyl(2-NHDecyl)}-KTAK-AlaCOCOOMe) | >64 | – | 0.5 (≈ 0.62 µM) |
| CCCCCCCCCCNCCS(=O)(=O)N[C@@H](CCCCN)C(=O)N[C@H](C(=O)N[C@@H](C)C(=O)N[C@@H](CCCCN)C(=O)N[C@@H](C)C(=O)C(=O)O)[C@@H](C)O [Compound 251] ({Ethanesulfonyl(2-NHDecyl)}-KTAK-X22) | >64 | – | 0.5 (≈ 0.63 µM) |
| CCCCCCCCCCNCCS(=O)(=O)N[C@@H](CCN)C(=O)N[C@H](C(=O)N[C@@H](C)C(=O)N[C@@H](CCCCN)C(=O)N[C@@H](C)C(=O)C(=O)OC)[C@@H](C)O [Compound 252] ({Ethanesulfonyl(2-NHDecyl)}-[Dab]TAK-AlaCOCOOMe) | 64 (≈ 82.2 µM) | – | 1 (≈ 1.28 µM) |
| CCCCCCCCCCNCCS(=O)(=O)N[C@@H](CCN)C(=O)N[C@H](C(=O)N[C@@H](C)C(=O)N[C@@H](CCCCN)C(=O)N[C@@H](C)C(=O)C(=O)O)[C@@H](C)O [Compound 253] ({Ethanesulfonyl(2-NHDecyl)}-[Dab]TAK-X22) | 64 (≈ 83.7 µM) | – | 1 (≈ 1.31 µM) |
| CCCCCCCCCCNCCC(=O)N[C@@H](CCCCN)C(=O)N[C@H](C(=O)N[C@@H](C)C(=O)N[C@@H](CCN)C(=O)N[C@@H](C)C(=O)C(=O)O)[C@@H](C)O [Compound 255] ({Propanoyl(3-decylamino)}-KTA[Dab]-X22) | >64 | – | 11 (≈ 15.1 µM) |
| CCCCCCCCCCNCCC(=O)N[C@@H](CCCCN)C(=O)N[C@H](C(=O)N[C@@H](C)C(=O)N[C@@H](CN)C(=O)N[C@@H](C)C(=O)C(=O)OC)[C@@H](C)O [Compound 256] ({Propanoyl(3-decylamino)}-KTA[Dap]-AlaCOCOOMe) | >64 | – | 10 (≈ 13.7 µM) |
| CCCCCCCCCCNCCC(=O)N[C@@H](CCCCN)C(=O)N[C@H](C(=O)N[C@@H](C)C(=O)N[C@@H](CN)C(=O)N[C@@H](C)C(=O)C(=O)O)[C@@H](C)O [Compound 257] ({Propanoyl(3-decylamino)}-KTA[Dap]-X22) | >64 | – | 11 (≈ 15.4 µM) |
| CCCCCCCCCC(=O)NCC(=O)N[C@H](C(=O)N[C@@H](C)C(=O)N[C@@H](CCCCN)C(=O)N[C@@H](C)B1O[C@@H]2C[C@@H]3C[C@@H](C3(C)C)[C@]2(C)O1)[C@@H](C)O [Compound 258] (Decanoyl-GTAK-{boroAla((+)-pinanediol)}) | >64 | 8 (≈ 10.9 µM) | – |
| CCCCCCCCCC(=O)NCC(=O)N[C@@H](CCCCN)C(=O)N[C@H](C(=O)N[C@@H](C)C(=O)N[C@@H](CCCCN)C(=O)N[C@@H](C)B1O[C@@H]2C[C@@H]3C[C@@H](C3(C)C)[C@]2(C)O1)[C@@H](C)O [Compound 259] (Decanoyl-GKTAK-{boroAla((+)-pinanediol)}) | 64 (≈ 74.2 µM) | 2.4 (≈ 2.78 µM) | – |
| CCCCCCCC(=O)N[C@@H](CN)C(=O)N[C@H](C(=O)N[C@@H](C)C(=O)N[C@@H](CCCCN)C(=O)N[C@@H](C)B1O[C@@H]2C[C@@H]3C[C@@H](C3(C)C)[C@]2(C)O1)[C@@H](C)O [Compound 260] (Octanoyl-[Dap]TAK-{boroAla((+)-pinanediol)}) | 32 (≈ 43.5 µM) | 23 (≈ 31.3 µM) | – |
| C[C@H](NC(=O)[C@H](CCCCN)NC(=O)[C@H](C)NC(=O)[C@@H](NC(=O)[C@H](CCN)NC(=O)c1cnc(-c2ccc(Cl)cc2)nc1)[C@@H](C)O)B1O[C@@H]2C[C@@H]3C[C@@H](C3(C)C)[C@]2(C)O1 [Compound 261] (X35-[Dab]TAK-{boroAla((+)-pinanediol)}) | 4 (≈ 4.76 µM) | 1.7 (≈ 2.02 µM) | – |
| CC(C)C#CC#Cc1ccc(C(=O)N[C@@H](CCN)C(=O)N[C@H](C(=O)N[C@@H](C)C(=O)N[C@@H](CCCCN)C(=O)N[C@@H](C)B2O[C@@H]3C[C@@H]4C[C@@H](C4(C)C)[C@]3(C)O2)[C@@H](C)O)cc1 [Compound 263] (X36-[Dab]TAK-{boroAla((+)-pinanediol)}) | 0.25 (≈ 0.306 µM) | 0.71 (≈ 0.868 µM) | – |
| C[C@H](NC(=O)[C@H](CCCCN)NC(=O)[C@H](C)NC(=O)[C@@H](NC(=O)[C@H](CCN)NC(=O)c1ccc(C#CC#CC(C)(C)O)cc1)[C@@H](C)O)B1O[C@@H]2C[C@@H]3C[C@@H](C3(C)C)[C@]2(C)O1 [Compound 264] (X33-[Dab]TAK-{boroAla((+)-pinanediol)}) | 4 (≈ 4.8 µM) | 8 (≈ 9.59 µM) | – |

Source: patent US20160194358A1, “LINEAR PEPTIDE ANTIBIOTCS” (priority 2013, published 2016)
